Measured values: EP4700025A1, “AMIDE COMPOUND, PHARMACEUTICAL COMPOSITION COMPRISING SAME, AND USE THEREOF” (Suzhou Genhouse Bio Co., Ltd., priority 2023, dated 2024)
pEC50, pIC50: −log10 of the molar value. Read-outs that look alike come from different tables or passages of the source. Each block holds one compound with its values, some of them ahead of it.

Columns and labels:
[1] = system: HCT-116-MTAP^-/-; experiment: CCK8 proliferation inhibition, HCT-116-MTAP^-/-; type: cell-based; conditions: Homo sapiens, 192 h; HCT-116-MTAP^-/- (MTAP-deficient); CCK8, 8 days after drug treatment
[2] = system: HCT-116; experiment: CCK8 proliferation inhibition, HCT-116; type: cell-based; conditions: Homo sapiens, 192 h, CCK8, 8 days after drug treatment
[3] = system: SDMA; experiment: SDMA Inhibition Assay in HCT-116 cells; type: cell-based; conditions: Homo sapiens, HCT-116, 96 hours
[4] = target: PRMT5 (Homo sapiens, UniProt O14744); experiment: Inhibitory activity against enzymatic activity of PRMT5 (fluorescence polarization); type: biochemical; conditions: PRMT5 25 nM, SAM 1 µM, polypeptide 1 µM, MTA 2 µM; 37 °C 2 hours
Sequence of PRMT5 (O14744 whole entry): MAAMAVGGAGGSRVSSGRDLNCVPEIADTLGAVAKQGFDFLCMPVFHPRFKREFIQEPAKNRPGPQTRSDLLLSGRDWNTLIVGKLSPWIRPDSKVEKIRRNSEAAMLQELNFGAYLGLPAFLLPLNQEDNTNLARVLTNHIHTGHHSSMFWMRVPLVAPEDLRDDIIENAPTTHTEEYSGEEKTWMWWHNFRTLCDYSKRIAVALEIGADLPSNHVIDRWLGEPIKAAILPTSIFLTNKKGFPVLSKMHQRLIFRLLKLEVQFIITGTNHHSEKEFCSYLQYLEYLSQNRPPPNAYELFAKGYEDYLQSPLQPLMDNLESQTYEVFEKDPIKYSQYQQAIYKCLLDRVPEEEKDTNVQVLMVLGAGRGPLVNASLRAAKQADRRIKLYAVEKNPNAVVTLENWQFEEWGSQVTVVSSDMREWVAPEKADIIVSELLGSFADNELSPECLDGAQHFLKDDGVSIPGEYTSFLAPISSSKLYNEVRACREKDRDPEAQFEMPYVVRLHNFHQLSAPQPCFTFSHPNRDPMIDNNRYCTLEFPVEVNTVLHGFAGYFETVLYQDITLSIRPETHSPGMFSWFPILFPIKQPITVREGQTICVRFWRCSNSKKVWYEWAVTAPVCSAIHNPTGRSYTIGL
Sequence of PRMT5 (Q9BQA1 whole entry partner): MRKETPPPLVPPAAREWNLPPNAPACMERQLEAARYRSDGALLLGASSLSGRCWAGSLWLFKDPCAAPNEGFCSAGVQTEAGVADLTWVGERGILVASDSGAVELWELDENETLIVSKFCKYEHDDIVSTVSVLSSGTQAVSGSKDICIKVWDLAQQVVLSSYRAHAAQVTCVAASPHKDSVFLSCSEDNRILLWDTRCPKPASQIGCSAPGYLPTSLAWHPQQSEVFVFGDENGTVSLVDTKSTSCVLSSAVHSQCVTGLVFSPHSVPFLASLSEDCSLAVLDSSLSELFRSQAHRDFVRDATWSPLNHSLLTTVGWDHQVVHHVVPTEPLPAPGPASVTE
Description: The compounds were prepared into 10 mM stock solutions using DMSO, and then 9 concentration gradients (with an initial concentration of 10 µM followed by 1:5 dilution) were prepared using a buffer (50 mM Tris-HCl pH 8.5, 5 mM MgCl2, 4 mM DTT, 0.01% Triton X-100, 0.1 M NaCl, 0.5% DMSO), and each well received 5 µL of the diluted compound solutions. SAM, a polypeptide, and MTA were prepared using a buffer to final concentrations of 1 µM, 1 µM, and 2 µM, respectively, and were added to each well in a total of 5 µL. Meanwhile, an MTA-free group was set as a control. […] Subsequently, a mixture of 2.5 µL of stop buffer A, 2.5 µL of an 8× MT assay mixture (final concentration: 1×), and 24 µg/mL AMP2/GMP2 antibodies (final concentration: 3 µg/mL) was added. The resulting mixture was incubated at room temperature for 1.5 hours, and fluorescence polarization (FP) was measured (Ex 633, Em 647). Meanwhile, negative control wells without protein (Blank) and positive control wells without compound (DMSO) were set. Each experiment was independently repeated three times.
Data processing: The numerical values of each group were recorded for statistical analysis, and the inhibition rate was calculated according to the following formula: inhibition percentage of compound wells (% inh) = [1 - (ave Blank - Cpd well)/(ave Blank - ave DMSO control)] × 100. Note: ave represents the average value, and Cpd represents the numerical value of the wells containing the compound. A sigmoidal dose-inhibition rate curve was plotted and fitted using a nonlinear regression model in the GraphPad Prism 7.0 software, and the IC50 value was calculated. Table 1. Inhibitory activity of compounds against enzymatic activity of PRMT5

[5] = Pharmacokinetic assay in mice; type: in vivo, Balb/c mice; conditions: mouse; for MRT inf: read-out: MRT(0-∞)
Description: Eighteen male Balb/c mice aged 6 to 8 weeks were randomly divided into 2 groups (IV group and PO group). The corresponding compounds were administered to the animals in the IV group by tail intravenous injection at 2 mg/kg, and the corresponding compounds were administered to the animals in the PO group by oral gavage at 10 mg/kg or 100 mg/kg. The animals in the IV group were allowed free access to food and water, and the animals in the PO group were fasted overnight before administration and were fed 4 h after administration. Throughout the experiment, the animals were allowed free access to water. Plasma samples were separately collected at 0.083 h (only group IV), 0.25 h, 0.5 h, 1 h, 2 h, 4 h, 8 h, and 24 h after administration. About 100 µL of blood was collected from the orbit of the animal, placed into a 1.5 mL anticoagulation centrifuge tube, and centrifuged at 8000 rpm and 4 °C for 10 min. The upper plasma sample was transferred to an EP tube. The plasma samples were stored in a refrigerator at -80 °C until sample analysis. Pharmacokinetic parameters of the drug were calculated based on the drug concentration-time data, including the peak concentration Cmax, peak time Tmax, clearance rate CL, steady state apparent volume of distribution Vss, area under drug-time curve AUC, elimination half-life t1/2, bioavailability, and the like. Data below the 80% lower limit of quantification were excluded from the calculation of pharmacokinetic parameters.

[6] = system: A549; experiment: CCK8 proliferation inhibition, A549; type: cell-based; conditions: Homo sapiens, 192 h, CCK8, 8 days after drug treatment
[7] = system: HCT-116-MTAP^-/- cells; experiment: Pharmacodynamic study, HCT-116-MTAP^-/- subcutaneous xenograft; type: in vivo, mouse; conditions: HCT-116-MTAP^-/- xenograft, 60 mpk PO QD
Description: Human colon cancer HCT-116-MTAP^-1- cells were cultured in monolayer in vitro using the McCoy 5A culture medium (HyClone) containing 10% fetal bovine serum (BI) and 1% penicillin and streptomycin (Beyotime) in an incubator at 37 °C with 5% CO2. The cells were digested with trypsin 2 to 3 times weekly for passaging. When the saturation degree of the cells was 80% to 90%, the cells were collected, counted, and inoculated. 5 × 10^6 (0.1 mL) HCT-116-MTAP^-/- cells were subcutaneously inoculated on the right back of each mouse. On about day 15 after inoculation of the cells, the mean tumor volume reached 172 mm^3. The mice were randomly grouped for administration (the animals were divided into an administration group and a control group, with 6 animals in each group). The day of grouping was designated as d0, and intragastric administration was started on d1. The administration was performed once daily at an administration volume of 10 mL/kg. Vehicle control was administered to the control group. The tumor volume was measured 2 to 3 times weekly, and meanwhile, the mice were weighed and the data were recorded; daily observations were made to record the body surface signs of the mice. After the experiment was completed, the tumors were collected, weighed, and photographed for recording.
Calculation formula for tumor volume: Tumor volume (mm^3) = 1/2 × (a×b^2) [formula] (note: a represents long diameter and b represents short diameter) [formula]

[8] = system: SDMA; experiment: SDMA Inhibition Assay in A549 cells; type: cell-based; conditions: Homo sapiens, A549, 96 hours
[9] = system: SDMA; experiment: SDMA Inhibition Assay in HCT-116-MTAP^-/- cells; type: cell-based; conditions: Homo sapiens, 96 hours
[10] = target: T1, hERG Potassium Ion Channel (Homo sapiens, UniProt Q12809); experiment: Effect on hERG potassium ion channel (whole-cell patch clamp, HEK293 cells); type: cell-based; conditions: whole-cell patch clamp (Qpatch), room temperature
T1 construct: expressed in transfected cells; host or cells: HEK293
T1 sequence (Q12809 whole entry): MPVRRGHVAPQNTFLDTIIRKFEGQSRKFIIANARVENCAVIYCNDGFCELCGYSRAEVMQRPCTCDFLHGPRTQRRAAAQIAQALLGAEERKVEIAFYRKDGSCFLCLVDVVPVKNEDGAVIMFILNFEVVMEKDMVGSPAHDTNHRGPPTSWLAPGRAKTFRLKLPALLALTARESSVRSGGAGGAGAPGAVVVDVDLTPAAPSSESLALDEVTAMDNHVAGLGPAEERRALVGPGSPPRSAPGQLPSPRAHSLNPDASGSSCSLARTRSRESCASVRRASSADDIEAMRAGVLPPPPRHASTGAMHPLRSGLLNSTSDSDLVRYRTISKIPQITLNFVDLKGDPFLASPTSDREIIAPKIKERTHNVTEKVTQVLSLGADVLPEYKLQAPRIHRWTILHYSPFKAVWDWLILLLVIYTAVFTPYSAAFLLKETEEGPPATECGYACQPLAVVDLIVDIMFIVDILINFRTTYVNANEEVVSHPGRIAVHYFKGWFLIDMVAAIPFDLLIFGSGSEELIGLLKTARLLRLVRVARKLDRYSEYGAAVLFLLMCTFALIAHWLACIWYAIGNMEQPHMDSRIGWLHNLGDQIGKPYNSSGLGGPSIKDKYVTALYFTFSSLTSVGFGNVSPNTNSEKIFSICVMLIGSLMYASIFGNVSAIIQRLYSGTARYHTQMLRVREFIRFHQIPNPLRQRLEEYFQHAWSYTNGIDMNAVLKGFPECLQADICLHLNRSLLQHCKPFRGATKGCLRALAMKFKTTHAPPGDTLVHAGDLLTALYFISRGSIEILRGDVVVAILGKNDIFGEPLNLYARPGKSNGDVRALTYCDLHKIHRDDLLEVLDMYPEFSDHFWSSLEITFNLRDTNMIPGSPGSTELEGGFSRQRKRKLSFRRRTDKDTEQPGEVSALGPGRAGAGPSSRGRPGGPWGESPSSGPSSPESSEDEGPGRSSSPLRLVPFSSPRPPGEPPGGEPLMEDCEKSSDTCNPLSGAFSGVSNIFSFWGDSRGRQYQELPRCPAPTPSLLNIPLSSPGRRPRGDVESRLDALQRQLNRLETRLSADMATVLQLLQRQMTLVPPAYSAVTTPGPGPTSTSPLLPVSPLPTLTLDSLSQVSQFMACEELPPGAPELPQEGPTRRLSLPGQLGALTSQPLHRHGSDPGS
Description: HEK293 cells were cultured in a DMEM medium containing 10% fetal bovine serum and 0.8 mg/mL G418 at 37 °C with 5% CO2. The cells were digested by TrypLE™ Express and then centrifuged. The cell density was adjusted to 2 × 10^6 cells/mL. The cells were then gently mixed for 15 to 20 min using a shaker equilibrated at room temperature, and subjected to a patch clamp assay on a machine. The culture medium of the prepared cells was replaced with extracellular fluid. The intracellular fluid and the extracellular fluid were taken from the fluid pool and added to the intracellular fluid pool and the cell and test substance pool of the QPlate chip, respectively. The voltage stimulation of the whole-cell hERG potassium current was recorded by the whole-cell patch clamp, and the experimental data were collected and stored by Qpatch. […] The current detected in compound-free extracellular fluid for each cell served as its own control group, and the detection was repeated twice independently using at least two cells per concentration. […] For data analysis, the current after the action of each drug concentration and the current of the blank control were standardized ((Peak tail currentcompound)/(Peak tail currentvehicle)) [formula] , and then the inhibition rate corresponding to each drug concentration was calculated (1−(Peak tail currentcompound)/(Peak tail currentvehicle)) [formula] . […]

[11] = Pharmacokinetic assay in rats; type: in vivo, SD rats; conditions: rat
Description: In this experimental example, the pharmacokinetic behavior of the test compounds after administration by intravenous injection (IV) and oral gavage (PO) in SD rats was tested.
On the day of administration, rats were weighed for actual body weight, and the administration volume was calculated. Each compound was tested in two groups with 3 rats in each group; one group was subjected to administration by single intravenous injection, and the other group was subjected to administration by single oral gavage. The whole blood samples were collected via the jugular vein at prescribed time points (0.25 h, 0.5 h, 1 h, 2 h, 4 h, 8 h, and 24 h after administration). After the blood sample collection, the samples were immediately transferred to labeled commercial sample tubes containing K2-EDTA (0.85-1.15 mg), followed by centrifugation (3200× g, 4 °C, 10 min) and plasma collection. The plasma was transferred to a pre-cooled centrifuge tube, frozen in dry ice, and then stored in an ultra-low temperature freezer at -60 °C or lower until the LC-MS/MS analysis was performed.
Plasma concentrations were determined by the LC-MS/MS method. Plasma drug concentration data for the compounds were processed using a non-compartmental model in the WinNonlin Version 6.3 (Pharsight, Mountain View, CA) pharmacokinetic software. The relevant pharmacokinetic parameters were calculated by a linear-log trapezoidal method.

[12] = male, Balb/c, plasma, 2 mg/kg, IV 2mpk
[13] = male, Balb/c, plasma, 10 mg/kg, PO 10mpk
[14] = male, Balb/c, plasma, 100 mg/kg, PO 100mpk
[15] = SD, plasma, 100 mg/kg, PO 100mpk

- pEC50 [1]: 8.38
- pEC50 [2]: 5.49
- pEC50 [3]: 6.66
- pIC50 [4]: 7.31
- AUC(0-inf) [5, 12]: 5.69 µM·h
- AUC(0-t) [5, 12]: 5.45 µM·h
- C0 [5, 12]: 3.52 µM
- MRT inf [5, 12]: 2.3 h
- Vd ([5]; male, Balb/c, plasma, 2 mg/kg, IV 2mpk, read-out: Vz): 2 L/kg
- AUC(0-inf) [5, 13]: 18.4 µM·h
- AUC(0-t) [5, 13]: 18.1 µM·h
- Cmax [5, 13]: 3.24 µM
- Tmax [5, 13]: 1 h
- MRT inf [5, 13]: 5.5 h
- CLz ([5]; IV 2mpk): 13 mL/min/kg
- R_AUC(t/∞) ([5]; IV 2mpk): 95.8%
- t1/2z ([5]; IV 2mpk): 1.8 h
- R_AUC(t/∞) ([5]; PO 10mpk): 98.3%
- t1/2z ([5]; PO 10mpk): 4.1 h
- F ([5]; PO 10mpk vs IV 2mpk): 64.7%
- pEC50 [6]: 7.38
- pEC50 [8]: 8.85
- pEC50 [9]: 8.82
Compound: CN(Cc1ccc2c(c1)OC(F)(F)O2)C(=O)c1cc2c(cc1F)nc(N)c1cnn(C)c12 [Example I-1]
- Day 28 TGI [7]: 85%

- AUC(0-t) [5, 12]: 9.6 µM·h
- AUC(0-t) [5, 14]: 455 µM·h
- Cmax [5, 14]: 35.7 µM
- AUC(0-t) ([11]; SD, plasma, 2 mg/kg, IV 2mpk): 4.75 µM·h
- AUC(0-t) [11, 15]: 122 µM·h
- Cmax [11, 15]: 5.42 µM
- F ([11]; PO 100mpk vs IV 2 mpk): 51%
Compound: Cn1ncc2c(N)nc3cnc(C(=O)N4CCOC[C@@H]4c4ccc(C(F)(F)F)cc4)cc3c21 [Control compound A, reference compound]
- pIC50 [10]: 4.89
